Measured values: ChEMBL document CHEMBL6120946, “From Hit to Lead: Discovery of First-In-Class Furanone Glycoside D228 Derived from Chimonanthus salicifolius for the Treatment of Inflammatory Bowel Disease” (J Med Chem, 2024)
Activity calls are given as the source filed them. The calls are words filed in the database; no cut-off is given here.

Assays:
[1] = Cytotoxicity against mouse Splenocyte by MTT assay; assay type: toxicity, cell-based; details: splenocytes
[2] = system: B-cell line; experiment: Immunosuppressive activity in mouse B-lymphocyte assessed as reduction in LPS-induced cell proliferation incubated for 48 hrs; assay type: functional, cell-based
[3] = Selectivity ratio of CC50 for cytotoxicity against mouse Splenocyte to IC50 for immunosuppressive activity in mouse B-lymphocyte; assay type: toxicity; details: splenocytes (CC50) and B-lymphocytes (IC50)
[4] = Immunosuppressive activity in mouse T-lymphocyte assessed as reduction in concanavalin A-induced cell proliferation incubated for 48 hrs; assay type: functional, cell-based
[5] = Selectivity ratio of CC50 for cytotoxicity against mouse Splenocyte to IC50 for immunosuppressive activity in mouse T-lymphocyte; assay type: toxicity; details: splenocytes (CC50) and T-lymphocytes (IC50)
[6] = system: Mus musculus; experiment: Antiinflammatory activity in DSS-induced male C57BL/6 mouse model of inflammatory bowel disease assessed as increase in colon length at 45 mg/kg/day, po via gavage measured upto 14 days relative to control; assay type: functional; details: time <= 14 day
[7] = system: Mus musculus; experiment: Antiinflammatory activity in DSS-induced male C57BL/6 mouse model of inflammatory bowel disease assessed as recovery from body weight loss at 40 mg/kg/day, po measured after 7 days; assay type: functional, organism-based; details: time 7.0 day
[8] = system: Mus musculus; experiment: Antiinflammatory activity in DSS-induced male C57BL/6 mouse model of inflammatory bowel disease assessed as recovery from body weight loss at 40 mg/kg/day, po measured after 7 days relative to control; assay type: functional; details: time 7 day
[9] = system: Mus musculus; experiment: Antiinflammatory activity in DSS-induced male C57BL/6 mouse model of inflammatory bowel disease assessed as recovery in colon length at 40 mg/kg/day, po measured after 7 days relative to control; assay type: functional; details: time 7 day
[10] = system: Mus musculus; experiment: Antiinflammatory activity in DSS-induced male C57BL/6 mouse model assessed as inhibition of TNF-alpha level in colon at 50 to 100 microM/Kg; assay type: functional, organism-based; details: dose 50-100 µM/Kg
[11] = system: Mus musculus; experiment: Antiinflammatory activity in DSS-induced male C57BL/6 mouse model of inflammatory bowel disease assessed as amelioration of infiltration of inflammatory cells at 50 to 100 microM/Kg by H and E staining based analysis; assay type: functional, organism-based; details: dose 50-100 µM/Kg
[12] = system: Mus musculus; experiment: Antiinflammatory activity in DSS-induced male C57BL/6 mouse model of inflammatory bowel disease assessed as upregulation of ZO-1 expression in colon at 50 to 100 microM/Kg by immunohistochemical analysis; assay type: functional, organism-based; details: dose 50-100 µM/Kg
[13] = Half life in male C57 mouse at 1 mg/kg, iv measured upto 24 hrs; assay type: ADME, organism-based; details: in vivo
[14] = Apparent volume of distribution in male C57 mouse at 1 mg/kg, iv measured upto 24 hrs; assay type: ADME, organism-based; details: in vivo, read-out: Vz
[15] = AUC last in male C57 mouse at 1 mg/kg, iv measured upto 24 hrs; assay type: ADME, organism-based; details: in vivo
[16] = AUC infinity in male C57 mouse at 1 mg/kg, iv measured upto 24 hrs; assay type: ADME, organism-based; details: in vivo
[17] = MRT last in male C57 mouse at 1 mg/kg, iv measured upto 24 hrs; assay type: ADME, organism-based; details: in vivo
[18] = Clearance in male C57 mouse at 1 mg/kg, iv measured upto 24 hrs; assay type: ADME, organism-based; details: in vivo
[19] = Cmax in male C57 mouse at 5 mg/kg, po measured upto 24 hrs; assay type: ADME, organism-based; details: in vivo
[20] = Tmax in male C57 mouse at 5 mg/kg, po measured upto 24 hrs; assay type: ADME, organism-based; details: in vivo
[21] = Half life in male C57 mouse at 5 mg/kg, po measured upto 24 hrs; assay type: ADME, organism-based; details: in vivo
[22] = Apparent volume of distribution in male C57 mouse at 5 mg/kg, po measured upto 24 hrs; assay type: ADME, organism-based; details: in vivo
[23] = AUC last in male C57 mouse at 5 mg/kg, po measured upto 24 hrs; assay type: ADME, organism-based; details: in vivo
[24] = AUC infinity in male C57 mouse at 5 mg/kg, po measured upto 24 hrs; assay type: ADME, organism-based; details: in vivo
[25] = MRT last in male C57 mouse at 5 mg/kg, po measured upto 24 hrs; assay type: ADME, organism-based; details: in vivo
[26] = Clearance in male C57 mouse at 5 mg/kg, po measured upto 24 hrs; assay type: ADME, organism-based; details: in vivo
[27] = Oral bioavailability in male C57 mouse at 5 mg/kg measured upto 24 hrs; assay type: ADME, organism-based; details: in vivo
[28] = Genotoxicity in Salmonella typhimurium by Ames test; assay type: toxicity; details: salmonella enterica subsp. enterica serovar typhimurium
[29] = Genotoxicity in erythrocyte (unknown origin) by Erythrocyte micronucleus test; assay type: toxicity, cell-based
[30] = Acute toxicity in male Kunming mouse assessed as effect on lung 5 g/Kg, po measured after 5 weeks; assay type: organism-based; details: in vivo, 5000 mg/kg, 840 h
[31] = Acute toxicity in female Kunming mouse assessed as effect on kidney 5 g/Kg, po measured after 5 weeks; assay type: organism-based; details: in vivo, 5000 mg/kg, 840 h
[32] = Toxicity in male Kunming mouse assessed as effect on body weight loss at 100 to 500 mg/kg/day, po measured after 5 weeks; assay type: organism-based; details: in vivo, 840 h, dose 100-500 mg/kg/day
[33] = Toxicity in male Kunming mouse assessed as effect on liver to body weight ratio at 100 to 500 mg/kg/day, po measured after 5 weeks; assay type: organism-based; details: in vivo, 840 h, dose 100-500 mg/kg/day
[34] = Toxicity in male Kunming mouse assessed as effect on GLU level in serum at 100 to 500 mg/kg/day, po measured after 5 weeks; assay type: organism-based; details: in vivo, 840 h, dose 100-500 mg/kg/day
[35] = Toxicity in male Kunming mouse assessed as effect on Na inorganic salt level in serum at 100 to 500 mg/kg/day, po measured after 5 weeks; assay type: organism-based; details: in vivo, 840 h, dose 100-500 mg/kg/day
[36] = Toxicity in female Kunming mouse assessed as effect on ABL level in serum at 100 to 500 mg/kg/day, po measured after 5 weeks; assay type: organism-based; details: in vivo, 840 h, dose 100-500 mg/kg/day
[37] = Toxicity in female Kunming mouse assessed as effect on GLU level in serum at 100 to 500 mg/kg/day, po measured after 5 weeks; assay type: organism-based; details: in vivo, 840 h, dose 100-500 mg/kg/day
[38] = Toxicity in female Kunming mouse assessed as effect on CK level in serum at 100 to 500 mg/kg/day, po measured after 5 weeks; assay type: organism-based; details: in vivo, 840 h, dose 100-500 mg/kg/day
[39] = system: Mus musculus; experiment: Antiinflammatory activity in DSS-induced male C57BL/6 mouse model of inflammatory bowel disease assessed as increase in colon length at 10 mg/kg/day, ip measured after 14 days relative to control; assay type: functional; details: time 14 day
[40] = system: Mus musculus; experiment: Antiinflammatory activity in DSS-induced male C57BL/6 mouse model of inflammatory bowel disease assessed as increase in colon length at 40 mg/kg/day, ip measured after 14 days relative to control; assay type: functional; details: time 14 day
[41] = system: Mus musculus; experiment: Antiinflammatory activity in DSS-induced male C57BL/6 mouse model of inflammatory bowel disease assessed as decrease in p38 phosphorylation level at 50 to 200 microM/Kg by Western blot analysis; assay type: functional, organism-based; details: dose 50-200 µM/Kg
[42] = system: Mus musculus; experiment: Antiinflammatory activity in DSS-induced male C57BL/6 mouse model of inflammatory bowel disease assessed as downregulation of MyD88 expression at 50 to 200 microM/Kg by Western blot analysis; assay type: functional, organism-based; details: dose 50-200 µM/Kg
[43] = system: Mus musculus; experiment: Antiinflammatory activity in DSS-induced male C57BL/6 mouse model assessed as inhibition of IL-6 level in colon at 50 to 200 microM/Kg; assay type: functional, organism-based; details: dose 50-200 µM/Kg
[44] = system: Mus musculus; experiment: Antiinflammatory activity in DSS-induced male C57BL/6 mouse model assessed as inhibition of IL-17A level in colon at 50 to 200 microM/Kg; assay type: functional, organism-based; details: dose 50-200 µM/Kg

CC(=O)OC[C@H]1O[C@@H](OC2=C(C)OC(=C(C)C)C2=O)[C@H](OC(C)=O)[C@@H](OC(C)=O)[C@@H]1OC(C)=O
CC50 [1]: 60 µM
IC50 [2]: 3.15 µM
selectivity ratio [3]: 22
IC50 [4]: 42.9 µM
selectivity ratio [5]: 1.44
Activity [6]: 91.4%
Activity [7]: Active
Activity [8]: 27%
Activity [9]: 33.3%
Activity [10]: Active
Activity [11]: Active
Activity [12]: Active
half-life [13]: 16.2 min
Vd [14]: 9.25 L/kg
AUC(0-t) at 24 h [15]: 32.3 ng·h/mL
AUC(0-inf) [16]: 44 ng·h/mL
MRT last at 24 h [17]: 10.2 min
clearance [18]: 397 mL/min/kg
Cmax [19]: 48.4 ng/mL
Tmax [20]: 19.8 min
half-life ([21]; male, C57, mouse): 115 min
Vz [22]: 137.3 L/kg
AUC(0-t) at 24 h [23]: 58.3 ng·h/mL
AUC(0-inf) [24]: 93.6 ng·h/mL
MRT last at 24 h [25]: 63.6 min
CL/F ([26]; male, C57, mouse): 915 mL/min/kg
bioavailability [27]: 36.1%
Activity [28]: Non-toxic
Activity [29]: Non-toxic
Activity [30]: Non-toxic
Activity [31]: Non-toxic
Activity [32]: Non-toxic
Activity [33]: Non-toxic
Activity [34]: Non-toxic
Activity [35]: Non-toxic
Activity [36]: Non-toxic
Activity [37]: Non-toxic
Activity [38]: Non-toxic

CC(C)=C1OC(C)=C(O[C@@H]2O[C@H](CO)[C@@H](O)[C@H](O)[C@H]2O)C1=O
Activity [39]: 20.4%
Activity [40]: 69.4%
CC50 [1]: 149 µM
IC50 [2]: 85.8 µM
selectivity ratio [3]: 1.9
IC50 [4]: 308 µM
selectivity ratio [5]: 0.63
Activity [7]: Active
Activity [8]: 45.6%
Activity [9]: 50.5%
Activity [41]: Active
Activity [42]: Active
Activity [43]: Active
Activity [44]: Active
half-life [13]: 27 min
Vd [14]: 1.09 L/kg
AUC(0-t) at 24 h [15]: 592 ng·h/mL
AUC(0-inf) [16]: 594 ng·h/mL
MRT last at 24 h [17]: 19.8 min
clearance [18]: 28.5 mL/min/kg
Cmax [19]: 284 ng/mL
Tmax [20]: 15 min
t1/2 ([21]; mouse, po, 5 mg/kg, 24 h): 332 min
Vz [22]: 29.6 L/kg
AUC(0-t) at 24 h [23]: 177 ng·h/mL
AUC(0-inf) [24]: 180 ng·h/mL
MRT last at 24 h [25]: 254 min
CL ([26]; mouse, po, 5 mg/kg, 24 h): 475.7 mL/min/kg
bioavailability [27]: 6%
